≈ marks a conversion by molar mass, not a printed value.
What was measured:
DPPH assay = settings: for IC50: metabolites and standards, in dichloromethane
Description: Experiments were performed according to previous procedures. Aliquots of dichloromethane solutions of oil or fractions (50–500 mg/mL) or test compounds (final concentration 0.01–2 mM) were added to 200 µL of a freshly prepared DPPH solution (75 mg/L), and the final volume was adjusted to 300 µL with dichloromethane to obtain a final DPPH concentration of 0.13 mM. The absorbance was read at 517 nm on a microplate reader 3 min after sample addition. Experiments were performed in triplicate and averaged. The DPPH inhibition was calculated as follows:Inhibition (%) = [100 × (A0 − A)/A0](1)

[1] = Total peroxyl radical-trapping potential (TRAP) assay; settings: for TRAP TE: metabolites and standards: activity of a 1 µM-solution relative to 1 µM Trolox
Description: The experimental protocol of the TRAP assay was previously reported. Briefly, AAPH (150 mM) was dissolved in 10 mL of Tris HCl buffer solution (100 mM, pH 7.4), and the solution was kept at 37 °C for 30 min to initiate thermal radical formation. A luminol stock solution (1 mM) was prepared in 50 mL Tris HCl buffer and kept in darkness at 4 °C. A 78 µM, working luminol solution was prepared before each assay by dilution in Tris HCl buffer. Samples for assays were prepared as follows: 2 mL of AAPH (final concentration, 100 mM) and 500 μL of luminol solution (final concentration, 13 µM) were introduced in a 3 mL tube; then, 500 μL of pure acetone (blank) or solution of the tested oil or extract in acetone (0.005–0.2 mg/mL) or DMSO (test compounds: 5–300 µM) were added and the mixture vortexed for 5 s before luminescence analysis. A calibration curve was obtained in the same conditions using the antioxidant Trolox (1–40 μM) as a standard.
Quantification of radical scavenging capacity was performed by integrating the area under the curve (AUC) for the sample and blank solutions, and the results are expressed as Trolox Equivalents (TE) using Equation (2):TE = ([Trolox] × ΔAUC Sample)/([Sample] × ΔAUC Trolox)(2) where ΔAUC Sample (Trolox) = AUC Blank − AUC Sample (Trolox).

[2] = tested on: A549 human lung carcinoma cells; assay: MTT cytotoxicity on A549 cells; assay type: cell-based; settings: 50% viability after 48 h
[3] = tested on: Staphylococcus aureus (ATCC 6538); assay: Antimicrobial disk-diffusion agar method; assay type: cell-based; settings: for zone of inhibition at 20 µg/disc: Staphylococcus aureus, ATCC6538, 20 µg/disk, 24 h, read-out: S. aureus Diameter of the zone of inhibition
3T3 fibroblasts = assay: MTT cytotoxicity on 3T3 fibroblasts; assay type: cell-based, murine; settings: Mus musculus, Fibroblast, 50% viability after 48 h
M. tuberculosis H37 RV = assay: Anti-mycobacterial Microplate-based Alamar Blue assay (MABA); assay type: cell-based; settings: Mycobacterium tuberculosis, H37RV
[4] = target: T1, Lipoxygenase (15-LOX, soybean) (Glycine max, UniProt P08170); assay: Lipoxygenase inhibitory activity (Cayman kit); assay type: biochemical; settings: compounds at 100 µg/mL
T1 sequence (P08170 1-839): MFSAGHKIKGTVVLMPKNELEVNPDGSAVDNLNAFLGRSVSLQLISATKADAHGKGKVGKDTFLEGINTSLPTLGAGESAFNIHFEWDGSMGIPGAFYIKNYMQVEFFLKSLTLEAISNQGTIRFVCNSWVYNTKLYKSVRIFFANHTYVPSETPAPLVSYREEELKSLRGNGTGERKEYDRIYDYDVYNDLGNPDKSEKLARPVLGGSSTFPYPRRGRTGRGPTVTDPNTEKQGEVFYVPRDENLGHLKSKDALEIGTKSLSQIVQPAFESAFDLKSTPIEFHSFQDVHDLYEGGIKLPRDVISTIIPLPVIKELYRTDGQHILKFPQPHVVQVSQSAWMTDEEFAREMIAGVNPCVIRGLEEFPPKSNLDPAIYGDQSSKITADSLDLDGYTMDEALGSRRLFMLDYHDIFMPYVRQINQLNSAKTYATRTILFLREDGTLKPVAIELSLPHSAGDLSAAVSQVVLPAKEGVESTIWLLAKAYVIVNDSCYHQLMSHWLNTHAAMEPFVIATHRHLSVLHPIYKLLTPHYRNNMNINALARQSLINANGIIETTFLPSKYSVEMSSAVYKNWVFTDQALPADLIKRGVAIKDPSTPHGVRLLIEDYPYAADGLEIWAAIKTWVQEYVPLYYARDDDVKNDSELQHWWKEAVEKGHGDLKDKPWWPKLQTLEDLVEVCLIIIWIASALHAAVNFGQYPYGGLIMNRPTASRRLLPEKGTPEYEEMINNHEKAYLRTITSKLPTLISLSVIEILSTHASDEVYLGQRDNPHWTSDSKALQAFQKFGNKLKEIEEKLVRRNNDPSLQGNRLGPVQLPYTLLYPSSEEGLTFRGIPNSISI
Description: Lipoxygenase (15-LOX, soybean) inhibitory activity was evaluated using a commercial assay kit (Cayman Chemicals Co; Item No. 760700) according to the manufacturer’s instructions. Solutions of test samples (10 μL) in methanol were added into 96-wells plates together with assay buffer, and the enzyme was added. The reaction was initiated by adding 10 μL of arachidonic acid to the wells and the plate was placed on a shaker for 15 min. Chromogen solution (100 μL) was added to the wells, the plate was then placed on a shaker for 10 min and absorbance was read at 495–500 nm. […] Results are expressed as a percentage relative to the activity without the test compound.

[5] = Metal chelating capacity (ferrozine); settings: EDTA equivalents per gram of extract
[6] = Superoxide radical quenching (allopurinol-XO generator, lucigenin luminescence); settings: glycine buffer/acetone
Description: All reactants were dissolved in glycine buffer, and the reaction was carried out at 25 °C [30]. […] The test tube was inserted in the luminometer, and reaction was initiated by adding a XO suspension (2 µL, 11 mU/mL). Luminescence was monitored for a total period of 7 min and O2^•− quenching was calculated by subtracting areas under the curve against blank. Each measurement was performed in triplicate.

Compound	DPPH scavenging capacity, in words (DPPH assay)	IC50 (DPPH assay) [µM]	TRAP activity, in words [1]	TRAP TE [1] [TE]	IC50 [2] [µg/mL]	zone of inhibition at 20 µg/disc [3] [mm]	IC50 (3T3 fibroblasts) [µg/mL]	MIC (M. tuberculosis H37 RV) [µg/mL]	other results
C[C@H]1Oc2c3c(c4c(-c5ccccc5)cc(=O)oc4c2C(=O)[C@@H]1C)OC(C)(C)C=C3 [Inophyllum C]	moderately active	701 ± 9	weakly active	0.21 ± 0.04	–	–	–	–	–
C[C@@H]1C(=O)c2c(c3c(c4c(-c5ccccc5)cc(=O)oc24)OC(C)(C)C=C3)O[C@@H]1C [Inophyllum E]	moderately active	481 ± 7	weakly active	0.91 ± 0.04	44.8 ± 2.2 (≈ 111 µM)	14 ± 2	120 ± 9 (≈ 298 µM)	> 15	–
C[C@@H]1[C@@H](C)Oc2c3c(c4c(-c5ccccc5)cc(=O)oc4c2[C@@H]1O)OC(C)(C)C=C3 [Inophyllum P]	strongly active	26.2 ± 3.1	strong antioxidant activity	4.11 ± 0.10	11.3 ± 0.6 (≈ 27.9 µM)	17 ± 1	92 ± 4 (≈ 227 µM)	5.7 ± 0.3 (≈ 14.1 µM)	DPPH: times more active than inophyllums E and C (DPPH assay): 20–30 times; Antimicrobial activity against S. aureus, in words ([3]; 20 µg per disc): significant activity; TRAP efficiency relative to Trolox [1]: about four times more efficient than Trolox
Cc1onc(-c2ccccc2)c1C(=O)N[C@@H]1C(=O)N2[C@@H]1SC(C)(C)[C@@H]2C(=O)O [Oxacillin, reference compound]	–	–	–	–	–	30 ± 1	–	–	–
O=c1c(O)c(-c2ccc(O)c(O)c2)oc2cc(O)cc(O)c12 [Quercetin]	–	14.1 ± 0.21	–	6.31 ± 0.24	–	–	–	–	inhibition at 100 µg/mL [4]: 83 ± 2%; MCC [5]: 105 ± 3 µmol EDTAE/g; O2•− Quenching IC50 [6]: 0.083 ± 0.06 µg/mL
Oc1ccc2c(c1)OCO2 [Sesamol, reference compound]	–	66.9 ± 3.1	–	1.34 ± 0.09	–	–	–	–	–
[H]/N=C(/N)N[C@H]1[C@H](O)[C@@H](O)[C@H](O[C@@H]2O[C@@H](C)[C@](O)(C=O)[C@H]2O[C@@H]2O[C@@H](CO)[C@H](O)[C@@H](O)[C@@H]2NC)[C@@H](N/C(N)=N\[H])[C@@H]1O [Streptomycin, reference compound]	–	–	–	–	–	–	–	0.4 ± 0.1 (≈ 0.688 µM)	–
CCC(C)c1cc(=O)oc2c3c(c4c(c12)OC(C)(C)C=C4)OC(C)C(C)C3O (centres unmarked) [Tamanolide D]	moderately active	779 ± 7	–	1.36 ± 0.20	9.3 ± 1.2 (≈ 24.2 µM)	12 ± 2	46 ± 5 (≈ 120 µM)	5.1 ± 0.3 (≈ 13.3 µM)	–
Cc1c(C)c2c(c(C)c1O)CCC(C)(C(=O)O)O2 (centres unmarked) [Trolox, 6-hydroxy-2,5,7,8-tetramethylchroman-2-carboxylic acid, reference compound]	–	21.2 ± 0.8	–	1	–	–	–	–	–
